Results published in patent US20150087673A1, “METHODS FOR USING AND BIOMARKERS FOR AMPK-ACTIVATING COMPOUNDS” (RIGEL PHARMACEUTICALS, INC., priority 2013, published 2015).

System: AMPK
Test: AMPK activation assay (enzyme-linked immunosorbent assay)
Format: cell-based
Method: Compounds were assayed for their ability to activate AMPK using an enzyme-linked immunosorbent assay. Reagents and procedures for measuring AMPK activation are well known and kits for AMPK activation assays are commercially available.

Structure (SMILES) | EC50
O=C(c1ccc(Nc2ccc(-c3ccccc3)cc2)nc1)N1CCN(Cc2ccc(F)cc2)CC1 [Compound 37, (6-(4-phenylphenylamino)pyridin-3-yl)(4-(4-fluorobenzyl)piperazin-1-yl)methanone] | 5000 to 10000 nM
N#Cc1ccc(CN2CCC(NC(=O)c3ccc(C(=O)Nc4ccn(Cc5ccc(C#N)cc5)n4)cn3)CC2)cc1 [Compound 38, N^5-(1-(4-cyanobenzyl)-1H-pyrazol-3-yl)-N^2-(1-(4-cyanobenzyl)piperidin-4-yl)pyridine-2,5-dicarboxamide] | 500 to 1000 nM
O=C(Nc1ccc(-c2cc[nH]c2)cc1)c1ccc(C(=O)N2CCN(Cc3ccc(F)cc3)CC2)cn1 [Compound 39, 5-(4-(4-fluorobenzyl)piperazine-1-carbonyl)-N-(4-(1H-pyrrol-3-yl)phenyl)picolinamide] | 1000 to 5000 nM
O=C(Nc1ccc(N2CCOCC2)cc1)c1ccc(C(=O)N2CCN(Cc3ccc(F)cc3)CC2)cn1 [Compound 40, 5-(4-(4-fluorobenzyl)piperazine-1-carbonyl)-N-(4-morpholinophenyl)picolinamide] | 1000 to 5000 nM
CN1CCN(c2ccc(NC(=O)c3ccc(C(=O)N4CCN(Cc5ccc(F)cc5)CC4)cn3)cc2)CC1 [Compound 41, 5-(4-(4-fluorobenzyl)piperazine-1-carbonyl)-N-(4-(4-methylpiperazin-1-yl)phenyl)picolinamide] | > 10000 nM
N#Cc1ccc(CNC(=O)c2cccc(-c3ccc(C(=O)N4CCN(Cc5ccc(F)cc5)CC4)cn3)c2)cc1 [Compound 42, (6-(3-(4-cyanobenzylcarbamoyl)phenyl)pyridin-3yl)(4-(4-fluorobenzyl)piperazin-1-yl)methanone] | 1000 to 5000 nM
N#Cc1ccc(CN2CCC(NC(=O)c3ccc(C(=O)Nc4cnn(Cc5ccc(C#N)cc5)c4)cn3)CC2)cc1 [Compound 43, N^5-(1-(4-cyanobenzyl)-1H-pyrazol-4-yl)-N^2-(1-(4-cyanobenzyl)piperidin-4-yl)pyridine-2,5-dicarboxamide] | 1000 to 5000 nM
N#Cc1ccc(CNC(=O)c2ccc(NC(=O)c3ccc(C(=O)N4CCN(Cc5ccc(F)cc5)CC4)cn3)cc2)cc1 [Compound 47, N-(4-(4-cyanobenzylcarbamoyl)phenyl)-5-(4-(4-fluorobenzyl)piperazine-1-carbonyl)picolinamide] | < 500 nM
O=C(NC1CCN(Cc2cc(F)cc(F)c2)CC1)c1ccc(C(=O)N2CCN(Cc3ccc(F)cc3)CC2)cn1 [Compound 49, N-(1-(3,5-difluorobenzyl)piperidin-4-yl)-5-(4-(4-fluorobenzyl)piperazine-1-carbonyl)picolinamide] | < 500 nM
Cc1cc(CN2CCC(NC(=O)c3ccc(C(=O)N4CCN(Cc5ccc(F)cc5)CC4)cn3)CC2)ccc1F [Compound 50, 5-(4-(4-fluorobenzyl)piperazine-1-carbonyl)-N-(1-(4-fluoro-3-methylbenzyl)piperidin-4-yl)picolinamide] | < 500 nM
O=C(NC1CCN(Cc2ccc(Cl)cc2)CC1)c1ccc(C(=O)N2CCN(Cc3ccc(F)cc3)CC2)cn1 [Compound 52] | < 500 nM
Cc1ccc(Oc2ccc(NC(=O)c3ccc(C(=O)N4CCN(Cc5ccc(F)cc5)CC4)cn3)cc2)cc1 [Compound 53, 5-(4-(4-fluorobenzyl)piperazine-1-carbonyl)-N-(4-(4-methylphenoxy)phenyl)picolinamide] | < 500 nM
COc1ccc(Oc2ccc(NC(=O)c3ccc(C(=O)N4CCN(Cc5ccc(F)cc5)CC4)cn3)cc2)cc1 [Compound 54, 5-(4-(4-fluorobenzyl)piperazine-1-carbonyl)-N-(4-(4-methoxyphenoxy)phenyl)picolinamide] | < 500 nM
O=C(Nc1ccc(Oc2cccc(F)c2)cc1)c1ccc(C(=O)N2CCN(Cc3ccc(F)cc3)CC2)cn1 [Compound 55, 5-(4-(4-fluorobenzyl)piperazine-1-carbonyl)-N-(4-(3-fluorophenoxy)phenyl)picolinamide] | < 500 nM
N#Cc1cccc(Oc2ccc(NC(=O)c3ccc(C(=O)N4CCN(Cc5ccc(F)cc5)CC4)cn3)cc2)c1 [Compound 56, N-(4-(3-cyanophenoxy)phenyl)-5-(4-(4-fluorobenzyl)piperazine-1-carbonyl)picolinamide] | < 500 nM
COc1cccc(Oc2ccc(NC(=O)c3ccc(C(=O)N4CCN(Cc5ccc(F)cc5)CC4)cn3)cc2)c1 [Compound 57, 5-(4-(4-fluorobenzyl)piperazine-1-carbonyl)-N-(4-(3-methoxyphenoxy)phenyl)picolinamide] | < 500 nM
Cc1cccc(Oc2ccc(NC(=O)c3ccc(C(=O)N4CCN(Cc5ccc(F)cc5)CC4)cn3)cc2)c1 [Compound 58, 5-(4-(4-fluorobenzyl)piperazine-1-carbonyl)-N-(4-(3-methylphenoxy)phenyl)picolinamide] | < 500 nM
N#Cc1ccc(Oc2ccc(NC(=O)c3ccc(C(=O)N4CCN(Cc5ccc(F)cc5)CC4)cn3)cc2)cc1 [Compound 59, N-(4-(4-cyanophenoxy)phenyl)-5-(4-(4-fluorobenzyl)piperazine-1-carbonyl)picolinamide] | < 500 nM

Structure (SMILES) | EC50
O=C(Nc1ccc(Oc2ccc(F)cc2)cc1)c1ccc(C(=O)N2CCN(Cc3ccc(F)cc3)CC2)cn1 [Compound 60, 5-(4-(4-fluorobenzyl)piperazine-1-carbonyl)-N-(4-(4-fluorophenoxy)phenyl)picolinamide] | < 500 nM
O=C(Nc1ccc(-c2cccnc2)cc1)c1ccc(C(=O)N2CCN(Cc3ccc(F)cc3)CC2)cn1 [Compound 61, 5-(4-(4-fluorobenzyl)piperazine-1-carbonyl)-N-(4-(pyridine-3-yl)phenyl)picolinamide] | < 500 nM
O=C(Nc1ccc(-c2ccsc2)cc1)c1ccc(C(=O)N2CCN(Cc3ccc(F)cc3)CC2)cn1 [Compound 62, 5-(4-(4-fluorobenzyl)piperazine-1-carbonyl)-N-(4-(thiophen-3-yl)phenyl)picolinamide] | < 500 nM
N#Cc1ccc(Oc2ccc(NC(=O)c3ccc(C(=O)N4CCN(Cc5ccc(F)cc5)CC4)cn3)cn2)cc1 [Compound 63, 5-(4-(4-fluorobenzyl)piperazine-1-carbonyl)-(6-(4-cyanophenoxy)pyridin-3-yl)picolinamide] | < 500 nM
N#Cc1cccc(Oc2ccc(NC(=O)c3ccc(C(=O)N4CCN(Cc5ccc(F)cc5)CC4)cn3)cn2)c1 [Compound 64, 5-(4-(4-fluorobenzyl)piperazine-1-carbonyl)-(6-(3-cyanophenoxy)pyridin-3-yl)picolinamide] | < 500 nM
O=C(Nc1ccc(Oc2ccc(F)cc2)nc1)c1ccc(C(=O)N2CCN(Cc3ccc(F)cc3)CC2)cn1 [Compound 65, 5-(4-(4-fluorobenzyl)piperazine-1-carbonyl)-N-(6-(4-fluorophenoxy)pyridin-3-yl)picolinamide] | < 500 nM
COc1cc(C#N)ccc1OC1CCN(C(=O)c2ccc(C(=O)NC3CCN(Cc4ccc(C#N)cc4)CC3)nc2)CC1 [Compound 66, 5-(4-(4-cyano-2-methoxyphenoxy)piperidine-1-carbonyl)-N-(1-(4-cyanobenzyl)piperidin-4-yl)picolinamide] | < 500 nM
O=C(Nc1ccc(Oc2ccc(F)cc2)nc1)c1ccc(C(=O)N2CCC(F)(C(=O)c3ccc(F)cc3)CC2)cn1 [Compound 67, 5-(4-(4-fluoro-4-fluorobenzoyl)piperidine-1-carbonyl)-N-(6-(4-fluorophenoxy)pyridin-3-yl)picolinamide] | < 500 nM
N#Cc1ccc(CN2CCC(NC(=O)c3ccc(C(=O)N4CCC(F)(C(=O)c5ccc(F)cc5)CC4)cn3)CC2)cc1 [Compound 68, N-(1-(4-cyanobenzyl)piperidin-4-yl)-5-(4-(4-fluoro-4-fluorobenzoyl)piperidine-1-carbonyl)picolinamide] | < 500 nM
COc1ccc(OC2CCN(C(=O)c3ccc(C(=O)Nc4ccc(Oc5ccc(F)cc5)nc4)nc3)CC2)cc1 [Compound 70, 5-(4-(4-methoxyphenoxy)piperidine-1-carbonyl)-N-(6-(4-fluorophenoxy)pyridin-3-yl)picolinamide] | < 500 nM
O=C(NC1CCN(Cc2ccccc2)CC1)c1ccc(C(=O)N2CCN(Cc3ccccc3)CC2)cn1 [Compound 72, 5-(4-benzylpiperazine-1-carbonyl)-N-(1-benzylpiperidin-4-yl)picolinamide] | < 500 nM
O=C(c1ccc(C(=O)N2CCN(Cc3ccccc3)CC2)nc1)N1CCN(Cc2ccccc2)CC1 [Compound 73, pyridine-2,5-diylbis((4-benzylpiperazin-1-yl)methanone)] | 5000 to 10000 nM
O=C(NC1CCN(Cc2ccccc2)CC1)c1ccc(C(=O)N2CCN(Cc3ccccc3)CC2)nc1 [Compound 74, 6-(4-benzylpiperazine-1-carbonyl)-N-(1-benzylpiperidin-4-yl)nicotinamide] | < 500 nM
N#Cc1ccc(CN2CCC(NC(=O)c3ccc(C(=O)N4CCN(C(=O)c5ccc(C(=O)NC6CCN(Cc7ccc(C#N)cc7)CC6)nc5)CC4)cn3)CC2)cc1 [Compound 75, 5,5′-(piperazine-1,4-diylbis(oxomethylene))bis(N-(1-(4-cyanobenzyl)piperidin-4-yl)picolinamide)] | 1000 to 5000 nM
N#Cc1ccc(CN2CCC(NC(=O)c3ccc(C(=O)N4CCN(C(=O)c5ccc(F)cc5)CC4)cn3)CC2)cc1 [Compound 76, N-(1-(4-cyanobenzyl)piperidin-4-yl)-5-(4-(4-fluorobenzoyl)piperazine-1-carbonyl)picolinamide] | < 500 nM
COc1ccc(C(=O)N2CCN(C(=O)c3ccc(C(=O)NC4CCN(Cc5ccc(C#N)cc5)CC4)nc3)CC2)cc1 [Compound 77, N-(1-(4-cyanobenzyl)piperidin-4-yl)-5-(4-(4-methoxybenzoyl)piperazine-1-carbonyl)picolinamide] | < 500 nM
N#Cc1ccc(CN2CCC(NC(=O)c3ccc(C(=O)N4CCN(S(=O)(=O)c5ccc(F)cc5)CC4)cn3)CC2)cc1 [Compound 78, N-(1-(4-cyanobenzyl)piperidin-4-yl)-5-(4-(4-fluorophenylsulfonyl)piperazine-1-carbonyl)picolinamide] | < 500 nM
COc1ccc(S(=O)(=O)N2CCN(C(=O)c3ccc(C(=O)NC4CCN(Cc5ccc(C#N)cc5)CC4)nc3)CC2)cc1 [Compound 79, N-(1-(4-cyanobenzyl)piperidin-4-yl)-5-(4-(4-methoxyphenylsulfonyl)piperazine-1-carbonyl)picolinamide] | 500 to 1000 nM
